Laboratory results as given in patent publication US8119635B2, “Diazabicyclic central nervous system active agents” (Abbott Laboratories, priority 2000, dated 2012).
Structures can show the parent of a compound that is named as a salt. Where two headings read alike, the source gives them in different places.

Key:
[1] = test system: Male Sprague-Dawley rats; experiment: Formalin test (analgesia); format: in vivo; details: Rattus norvegicus, ip, intraperitoneally 5 minutes before injection of 50 μL 5% formalin into rear paw, nocifensive behaviors, read-out: (MED) minimally effective dose, formalin test
Procedure: Another in vivo protocol utilized to determine the effectiveness of nicotinic acetylcholine receptor ligands as analgesic agents was the formalin test.
Male Sprague-Dawley rats (Charles River, Portage, Mich.) weighing 200 to 400 grams were used for all experiments. After a 20 minute period of acclimation to individual cages, 50 μL of a 5% formalin solution was injected subcutaneous into the dorsal aspect of one of the rear paws and the rats were then returned to the clear observation cages suspended above mirror panels. […] Phase 1 of the formalin test was defined as the period of time immediately after injection of formalin until 10 minutes after the formalin injection (i.e., 0-10 minutes after formalin). Phase 2 was defined as the 20 minute period from 30 to 50 minutes after formalin injection. The investigator recorded nocifensive behaviors in the injected paw of four animals during the session by observing each animal for one 15 second observation period during each 1 minute interval. Nocifensive behaviors recorded included flinching, licking or biting the injected paw. In dose-response studies, the test compound (or saline) was administered intraperitoneally 5 minutes before injection of formalin.

[2] = target: T1, neuronal nicotinic acetylcholine receptors (Rattus norvegicus, UniProt P09483+P12390); experiment: Binding of [3H]-cytisine to neuronal nicotinic acetylcholine receptors, crude synaptic membranes from whole rat brain
T1 construct: crude synaptic membrane preparations from whole rat brain; from tissue; host or cells: whole rat brain, crude synaptic membranes
T1 sequence (P09483 31-630): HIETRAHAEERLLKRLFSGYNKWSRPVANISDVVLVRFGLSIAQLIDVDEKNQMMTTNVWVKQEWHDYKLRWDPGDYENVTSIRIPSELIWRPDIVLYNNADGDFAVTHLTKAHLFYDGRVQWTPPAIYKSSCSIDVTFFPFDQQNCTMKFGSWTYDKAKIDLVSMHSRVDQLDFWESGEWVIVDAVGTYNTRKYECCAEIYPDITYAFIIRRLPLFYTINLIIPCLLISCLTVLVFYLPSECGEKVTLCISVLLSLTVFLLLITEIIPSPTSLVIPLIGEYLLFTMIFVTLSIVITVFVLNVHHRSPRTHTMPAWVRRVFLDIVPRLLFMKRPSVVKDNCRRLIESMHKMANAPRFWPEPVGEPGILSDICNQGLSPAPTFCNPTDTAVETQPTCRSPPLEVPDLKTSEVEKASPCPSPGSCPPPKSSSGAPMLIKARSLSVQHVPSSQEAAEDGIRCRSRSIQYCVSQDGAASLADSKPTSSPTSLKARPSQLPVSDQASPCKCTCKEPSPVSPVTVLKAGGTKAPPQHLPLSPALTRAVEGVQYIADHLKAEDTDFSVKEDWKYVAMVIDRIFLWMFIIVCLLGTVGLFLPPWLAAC
T1 sequence (P12390 25-500): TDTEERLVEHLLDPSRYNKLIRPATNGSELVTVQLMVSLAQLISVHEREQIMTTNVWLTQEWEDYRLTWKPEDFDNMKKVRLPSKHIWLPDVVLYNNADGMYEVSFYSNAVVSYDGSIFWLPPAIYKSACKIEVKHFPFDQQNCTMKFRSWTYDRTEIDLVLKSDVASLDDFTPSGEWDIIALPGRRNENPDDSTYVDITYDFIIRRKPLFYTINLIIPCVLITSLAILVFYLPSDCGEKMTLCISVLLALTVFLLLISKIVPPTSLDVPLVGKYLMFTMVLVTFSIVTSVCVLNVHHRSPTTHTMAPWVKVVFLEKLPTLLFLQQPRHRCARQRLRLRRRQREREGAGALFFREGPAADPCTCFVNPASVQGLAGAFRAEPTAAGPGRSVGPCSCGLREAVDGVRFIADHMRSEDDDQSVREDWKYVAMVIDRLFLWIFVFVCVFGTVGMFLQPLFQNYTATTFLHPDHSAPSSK
Procedure: The In Vitro protocols for determination of nicotinic acetylcholine channel receptor binding potencies of ligands were determined as follows.
Washed membranes were stored at −80° C. prior to use. Frozen aliquots were slowly thawed and resuspended in 20 volumes of buffer (containing: 120 mM NaCl, 5 mM KCl, 2 mM MgCl2, 2 mM CaCl2 and 50 mM Tris-Cl, pH 7.4 @[…]). After centrifuging at 20,000×g for 15 minutes, the pellets were resuspended in 30 volumes of buffer.
The test compounds were dissolved in water to make 10 mM stock solutions. Each solution was then diluted (1:100) with buffer (as above) and further taken through seven serial log dilutions to produce test solutions from 10^−5 to 10^−11 M.
Samples were incubated for 60 minutes at 4° C., then rapidly filtered through Whatman GF/B filters presoaked in 0.5% polyethyleneimine using 3×4 mL of ice-cold buffer. The filters are counted in 4 mL of Ecolume® (ICN). Nonspecific binding was determined in the presence of 10 μM (−)-nicotine and values were expressed as a percentage of total binding. IC50 values were determined with the RS-1 (BBN) nonlinear least squares curve-fitting program and IC50 values were converted to Ki values using the Cheng and Prusoff correction (Ki=IC50/(1+[ligand]/Kd of ligand).

| Compound | minimal effective dose [1] [µmol/kg] | Ki [2] [nM] | Ki ([2]; [3H]-CYT 1.25 nM, whole rat brain membranes, 60 minutes at 4° C., IC50 converted to Ki by Cheng and Prusoff correction, read-out: Average Ki) [nM] |
| --- | --- | --- | --- |
| c1cncc(N2CC3CNCC32)c1 (stereo not drawn) [Example 40, (cis)-6-(3′-pyridinyl)-3,6-diazabicyclo[3.2.0]heptane fumarate] | 1.9 | 6.2 | – |
| Clc1ccc(N2C[C@@H]3CNC[C@@H]32)cn1 [Example 54, (1S,5R)-6-(6-chloro-3-pyridinyl)-3,6-diazabicyclo[3.2.0]heptane fumarate] | 1.9 | 1.3 | – |
| N#Cc1cc(N2C[C@H]3CNC[C@H]32)cnc1Br [Example 76, 2-bromo-5-[(1R,5S)-3,6-diazabicyclo[3.2.0]hept-6-yl]nicotinonitrile fumarate] | 1.9 | 0.28 | – |
| C#Cc1cncc(N2C[C@@H]3CNC[C@@H]32)c1 [Example 68, (1S,5R)-6-(5-ethynyl-3-pyridinyl)-3,6-diazabicyclo[3.2.0]heptane fumarate] | > 19 | 0.61 | – |
| c1cncc(N2C[C@H]3CNC[C@H]32)c1 [Example 52, (1R,5S)-6-(3-pyridinyl)-3,6-diazabicyclo[3.2.0]heptane fumarate] | 19 | 1.3 | – |
| Clc1cc(N2C[C@H]3CNC[C@H]32)cnc1Cl [Example 85, (1R,5S)-6-(5,6-dichloro-3-pyridinyl)-3,6-diazabicyclo[3.2.0]heptane fumarate] | > 19 | 0.27 | – |
| COc1cncc(N2C[C@H]3CNC[C@H]32)c1 [Example 86, (1R,5S)-6-(5-methoxy-3-pyridinyl)-3,6-diazabicyclo[3.2.0]heptane 4-methylbenzenesulfonate] | > 19 | 0.75 | – |
| CCc1cncc(N2C[C@H]3CCN[C@H]3C2)c1 [Example 63, (3aR,6aR)-5-(5-ethyl-3-pyridinyl)octahydropyrrolo[3,4-b]pyrrole] | > 19 | 0.56 | – |
| C#Cc1cncc(N2C[C@H]3CCN[C@H]3C2)c1 [Example 35, (3aR,6aR)-5-(5-ethynyl-3-pyridinyl)octahydropyrrolo[3,4-b]pyrrole hydrochloride dihydrochloride] | 1.9 | 0.13 | – |
| Brc1cncc(N2C[C@H]3CNC[C@H]32)c1 [Example 53, (1R,5S)-6-(5-bromo-3-pyridinyl)-3,6-diazabicyclo[3.2.0]heptane fumarate] | > 19 | 3.1 | – |
| C=Cc1cc(N2C[C@H]3CCN[C@H]3C2)cnc1Br [Example 65, (3aR,6aR)-5-(6-bromo-5-vinyl-3-pyridinyl)octahydropyrrolo[3,4-b]pyrrole dihydrochloride] | > 19 | 3.1 | – |
| Brc1cncc(N2C[C@@H]3CNC[C@@H]32)c1 [Example 71, (1S,5R)-6-(5-bromo-3-pyridinyl)-3,6-diazabicyclo[3.2.0]heptane] | > 19 | 1.5 | – |
| C=Cc1cncc(N2C[C@H]3CCN[C@H]3C2)c1 [Example 56, (3aR,6aR)-5-(5-vinyl-3-pyridinyl)octahydropyrrolo[3,4-b]pyrrole dihydrochloride] | 1.9 | 0.62 | – |
| Clc1ccc(N2C[C@H]3CCNC[C@H]32)cn1 [Example 47, (1S,6R)-8-(6-chloro-3-pyridinyl)-3,8-diazabicyclo[4.2.0]octane difumarate] | 1.9 | – | 0.8 |
| COCc1cc(N2C[C@H]3CCN[C@H]3C2)cnc1Br [Example 67, (3aR,6aR)-5-[6-bromo-5-(methoxymethyl)-3-pyridinyl]octahydropyrrolo[3,4-b]pyrrole fumarate] | 19 | 1 | – |
| Cc1cncc(N2C[C@H]3CCN[C@H]3C2)c1 [Example 58, (3aR,6aR)-5-(5-methyl-3-pyridinyl)octahydropyrrolo[3,4-b]pyrrole trihydrochloride] | 1.9 | 0.53 | – |
| C=Cc1cncc(N2C[C@@H]3CNC[C@@H]32)c1 [Example 69, (1S,5R)-6-(5-vinyl-3-pyridinyl)-3,6-diazabicyclo[3.2.0]heptane fumarate] | > 19 | 3.2 | – |

| Compound | minimal effective dose [1] [µmol/kg] | Ki [2] [nM] | Ki ([2]; [3H]-CYT 1.25 nM, whole rat brain membranes, 60 minutes at 4° C., IC50 converted to Ki by Cheng and Prusoff correction, read-out: Average Ki) [nM] |
| --- | --- | --- | --- |
| Cc1cc(N2C[C@H]3CNC[C@H]32)cnc1Cl [Example 87, (1R,5S)-6-(6-chloro-5-methyl-3-pyridinyl)-3,6-diazabicyclo[3.2.0]heptane 4-methylbenzenesulfonate] | 6.2 | 0.2 | – |
| Cc1cc(N2C[C@H]3CCN[C@H]3C2)cnc1Br [Example 60, (3aR,6aR)-5-(6-bromo-5-methyl-3-pyridinyl)octahydropyrrolo[3,4-b]pyrrole dihydrochloride] | 0.62 | 0.11 | – |
| c1cncc(N2C[C@@H]3CCNC[C@@H]32)c1 (relative stereo) [Example 44, (cis)-8-(3-pyridinyl)-3,8-diazabicyclo[4.2.0]octane bis(4-methylbenzenesulfonate)] | 6.2 | 0.23 | – |
| C=Cc1cc(N2C[C@@H]3CNC[C@@H]32)cnc1Br [Example 72, (1S,5R)-6-(6-bromo-5-vinyl-3-pyridinyl)-3,6-diazabicyclo[3.2.0]heptane fumarate] | > 19 | 0.6 | – |
| N#Cc1cncc(N2C[C@@H]3CNC[C@@H]32)c1 [Example 70, 5-[(1S,5R)-3,6-diazabicyclo[3.2.0]hept-6-yl]nicotinonitrile fumarate] | > 19 | 0.86 | – |
| N#Cc1cc(N2C[C@H]3CCN[C@H]3C2)cnc1Br [Example 51, 5-((3aR,6aR)-hexahydropyrrolo[3,4-b]pyrrol-5(1H)-yl)-2-bromonicotinonitrile fumarate] | 0.62 | 0.12 | – |
| N#Cc1cncc(N2C[C@@H]3CCNC[C@@H]32)c1 [Example 50, 5-[(1R,6S)-3,8-diazabicyclo[4.2.0]oct-8-yl]nicotinonitrile fumarate] | 6.2 | 0.51 | – |
| COc1cc(N2C[C@H]3CCN[C@H]3C2)cnc1Br [Example 43, (3aR,6aR)-5-(6-bromo-5-methoxy-3-pyridinyl)octahydropyrrolo[3,4-b]pyrrole] | 6.2 | 0.3 | – |
| Brc1cncc(N2C[C@H]3CCN[C@H]3C2)c1 [Example 36, (3aR,6aR)-5-(5-bromo-3-pyridinyl)octahydropyrrolo[3,4-b]pyrrole dihydrochloride] | 6.2 | 0.17 | – |
| N#Cc1cncc(N2CC[C@H]3CN[C@H]3C2)c1 (relative stereo) [Example 62, (cis)-5-[3,8-diazabicyclo[4.2.0]oct-3-yl]nicotinonitrile fumarate] | 0.19 | 0.1 | – |
| c1cncc(N2C[C@@H]3CNC[C@@H]32)c1 [Example 55, (1S,5R)-6-(3-pyridinyl)-3,6-diazabicyclo[3.2.0]heptane fumarate] | > 19 | 0.72 | – |
| Clc1ccc(N2C[C@@H]3CN[C@@H]3C2)cn1 (relative stereo) [Example 41, (cis)-3-(6-chloro-3-pyridinyl)-3,6-diazabicyclo[3.2.0]heptane fumarate] | > 1.9 | 1.9 | – |
| OCc1cc(N2C[C@H]3CCN[C@H]3C2)cnc1Br [Example 64, [5-((3aR,6aR)-hexahydropyrrolo[3,4-b]pyrrol-5(1H)-yl)-2-bromo-3-pyridinyl]methanol fumarate] | > 19 | 1.1 | – |
| c1cncc(N2C[C@@H]3CN[C@@H]3C2)c1 (relative stereo) [Example 38, (cis)-3-(3-pyridinyl)-3,6-diazabicyclo[3.2.0]heptane bis(4-methylbenzenesulfonate)] | > 6.2 | 0.16 | – |
| Cc1cc(N2C[C@@H]3CCNC[C@@H]32)cnc1Cl [Example 90, (1R,6S)-8-(6-chloro-5-methyl-3-pyridinyl)-3,8-diazabicyclo[4.2.0]octane fumarate] | – | 0.04 | – |
| N#Cc1cncc(N2CC[C@@H]3CNC[C@@H]32)c1 [Example 81, 5-((3aR,6aR)-hexahydropyrrolo[3,4-b]pyrrol-1(2H)-yl)nicotinonitrile] | – | 11 | – |
| Clc1ccc(N2CC[C@H]3CN[C@H]3C2)cn1 (relative stereo) [Example 42, (cis)-3-(6-chloro-3-pyridinyl)-3,8-diazabicyclo[4.2.0]octane bis(4-methylbenzenesulfonate)] | – | 0.03 | – |
